{"source": "patent US8759261B2", "about": "“Method and composition for enhanced hydrocarbons recovery” (Shell Oil Company, priority 2008, dated 2014)", "assay": "Solvent addition to improve aqueous solubility of IOS blend in seawater brine", "assay_type": "physicochemical", "method": "The first attempt to improve the aqueous solubility of these blends was to use small amounts of solvents added to an IOS blend and seawater brine. One percent solvent was added to 3.2% brine solutions (see Table 1 for brine composition) containing a 0.2% blend of 78% IOS 2024 and 22% IOS 2428. This particular surfactant blend had been identified for minimizing the oil-water interfacial tension between the crude oil and brine representative of a North Sea reservoir. Additions of 1% hexylene glycol, 1-hexanol, polyethylene glycol (mw=400) and sodium xylene sulfonate were studied.\nA small amount of alcohol ethoxylate (8% relative to the IOS) was added to a second sample of sodium xylene sulfonate.", "data": [{"substance": "polyethylene glycol (mw=400)", "values": [{"measurement": "solubilizing of the solid in the IOS blend", "value": "solubilizing most but not all of the solid"}]}, {"substance": "sodium xylene sulfonate", "values": [{"measurement": "remaining precipitate after addition of nonionic", "setting": "second sample with 1% sodium xylene sulfonate plus alcohol ethoxylate (8% relative to the IOS), 3.2% brine, 0.2% IOS blend", "value": "eliminated the rest of the precipitate"}]}]}
